Assay [1] has as its target 5-hydroxytryptamine receptor 1D (Homo sapiens, UniProt P28221).
Assay [2] concerns the target 5-hydroxytryptamine receptor 1B (Homo sapiens, UniProt P28222).
In assay [3] the target is 5-hydroxytryptamine receptor 4 (Homo sapiens, UniProt Q13639).
For assay [4], the target named is 5-hydroxytryptamine receptor 2B (Homo sapiens, UniProt P41595).
In assay [5] the target is T1, 5-hydroxytryptamine receptor 3A (Homo sapiens, UniProt P46098).
T1 sequence (P46098 whole entry): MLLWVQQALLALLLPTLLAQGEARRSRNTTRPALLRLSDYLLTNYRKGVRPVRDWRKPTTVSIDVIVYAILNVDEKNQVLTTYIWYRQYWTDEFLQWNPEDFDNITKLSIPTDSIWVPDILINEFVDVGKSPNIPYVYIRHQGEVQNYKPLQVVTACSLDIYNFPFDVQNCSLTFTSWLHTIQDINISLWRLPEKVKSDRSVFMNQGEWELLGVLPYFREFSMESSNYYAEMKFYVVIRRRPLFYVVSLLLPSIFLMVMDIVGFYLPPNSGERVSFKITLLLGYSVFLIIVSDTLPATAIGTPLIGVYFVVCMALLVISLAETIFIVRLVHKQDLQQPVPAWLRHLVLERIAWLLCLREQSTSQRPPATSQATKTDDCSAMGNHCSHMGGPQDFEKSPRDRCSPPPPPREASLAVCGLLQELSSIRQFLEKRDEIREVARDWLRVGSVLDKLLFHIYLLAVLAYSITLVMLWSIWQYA

Assay [6] concerns the target 5-hydroxytryptamine receptor 2A (Homo sapiens, UniProt P28223).
The target in assay [7] is T2, 5-hydroxytryptamine receptor 1A (Homo sapiens, UniProt P08908).
T2 sequence (P08908 whole entry): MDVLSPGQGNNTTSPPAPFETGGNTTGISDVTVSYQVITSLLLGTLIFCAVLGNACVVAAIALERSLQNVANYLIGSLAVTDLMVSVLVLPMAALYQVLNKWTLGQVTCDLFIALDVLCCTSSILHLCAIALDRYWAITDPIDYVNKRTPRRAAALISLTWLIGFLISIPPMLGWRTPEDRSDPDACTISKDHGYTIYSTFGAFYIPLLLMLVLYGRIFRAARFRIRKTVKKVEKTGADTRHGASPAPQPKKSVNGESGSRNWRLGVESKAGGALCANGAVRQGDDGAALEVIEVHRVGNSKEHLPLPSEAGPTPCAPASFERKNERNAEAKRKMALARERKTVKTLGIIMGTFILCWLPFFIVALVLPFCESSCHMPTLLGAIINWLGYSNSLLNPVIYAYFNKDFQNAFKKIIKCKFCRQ

In assay [8] the target is T3, 5-hydroxytryptamine receptor 2C (Homo sapiens, UniProt P28335).
T3 sequence (P28335 whole entry): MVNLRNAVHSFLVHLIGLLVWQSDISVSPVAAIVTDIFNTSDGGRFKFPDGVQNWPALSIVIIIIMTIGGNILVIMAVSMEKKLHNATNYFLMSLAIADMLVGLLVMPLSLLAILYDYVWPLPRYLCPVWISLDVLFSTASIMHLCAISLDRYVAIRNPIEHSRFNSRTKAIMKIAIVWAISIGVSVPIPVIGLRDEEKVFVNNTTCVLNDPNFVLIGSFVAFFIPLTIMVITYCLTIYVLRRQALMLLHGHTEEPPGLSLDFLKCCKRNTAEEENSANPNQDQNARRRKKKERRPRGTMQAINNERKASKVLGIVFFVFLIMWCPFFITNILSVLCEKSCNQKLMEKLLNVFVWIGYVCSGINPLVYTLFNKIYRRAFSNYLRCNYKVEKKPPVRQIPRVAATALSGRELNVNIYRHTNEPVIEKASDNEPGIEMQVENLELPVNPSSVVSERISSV

Assay [9] deals with 5-hydroxytryptamine receptor 7 (Homo sapiens, UniProt P34969).
Sequence of 5-hydroxytryptamine receptor 7 (P34969 whole entry): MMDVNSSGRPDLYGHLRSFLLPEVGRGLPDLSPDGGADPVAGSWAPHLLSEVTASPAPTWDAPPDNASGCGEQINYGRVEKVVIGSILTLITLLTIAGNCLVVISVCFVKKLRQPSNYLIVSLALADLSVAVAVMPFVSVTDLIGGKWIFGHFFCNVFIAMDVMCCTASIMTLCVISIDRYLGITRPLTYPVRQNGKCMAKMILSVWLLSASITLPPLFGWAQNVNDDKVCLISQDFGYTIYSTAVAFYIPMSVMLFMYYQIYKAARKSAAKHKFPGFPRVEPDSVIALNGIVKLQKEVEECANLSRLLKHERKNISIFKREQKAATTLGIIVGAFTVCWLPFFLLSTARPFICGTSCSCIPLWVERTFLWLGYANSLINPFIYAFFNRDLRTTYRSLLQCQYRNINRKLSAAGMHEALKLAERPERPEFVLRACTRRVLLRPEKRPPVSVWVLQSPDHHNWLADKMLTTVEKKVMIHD
The target of assay [10] is 5-hydroxytryptamine receptor 6 (Homo sapiens, UniProt P50406).
Sequence of 5-hydroxytryptamine receptor 6 (P50406 whole entry): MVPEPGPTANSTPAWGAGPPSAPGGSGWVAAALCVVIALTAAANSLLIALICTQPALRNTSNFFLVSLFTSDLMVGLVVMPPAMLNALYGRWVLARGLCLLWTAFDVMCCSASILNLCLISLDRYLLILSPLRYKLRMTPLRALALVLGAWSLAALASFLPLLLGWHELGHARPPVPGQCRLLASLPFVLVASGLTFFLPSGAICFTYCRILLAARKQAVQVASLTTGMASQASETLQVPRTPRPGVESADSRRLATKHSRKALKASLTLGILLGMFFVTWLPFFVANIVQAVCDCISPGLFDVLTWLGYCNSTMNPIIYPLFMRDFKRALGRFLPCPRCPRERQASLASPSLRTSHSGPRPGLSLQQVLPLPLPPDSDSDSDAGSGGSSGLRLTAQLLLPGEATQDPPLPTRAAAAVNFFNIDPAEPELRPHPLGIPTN
The target in assay [11] is 5-hydroxytryptamine receptor 5A (Homo sapiens, UniProt P47898).
Sequence of 5-hydroxytryptamine receptor 5A (P47898 whole entry): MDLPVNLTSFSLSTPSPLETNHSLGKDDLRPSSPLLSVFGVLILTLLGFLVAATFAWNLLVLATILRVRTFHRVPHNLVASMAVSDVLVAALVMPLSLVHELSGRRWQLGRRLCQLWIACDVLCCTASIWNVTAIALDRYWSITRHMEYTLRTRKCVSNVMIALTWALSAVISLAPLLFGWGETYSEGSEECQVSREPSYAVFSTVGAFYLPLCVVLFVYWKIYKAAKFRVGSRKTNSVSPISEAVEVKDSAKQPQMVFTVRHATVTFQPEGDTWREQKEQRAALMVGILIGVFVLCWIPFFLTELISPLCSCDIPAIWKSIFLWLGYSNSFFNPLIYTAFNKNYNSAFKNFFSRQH

Data on one molecule can be found in BindingDB's records for doi:10.1124/jpet.102.034249 (Sanofi-Synthelabo Recherche, 2002).

Sequence of 5-hydroxytryptamine receptor 1B (P28222 whole entry): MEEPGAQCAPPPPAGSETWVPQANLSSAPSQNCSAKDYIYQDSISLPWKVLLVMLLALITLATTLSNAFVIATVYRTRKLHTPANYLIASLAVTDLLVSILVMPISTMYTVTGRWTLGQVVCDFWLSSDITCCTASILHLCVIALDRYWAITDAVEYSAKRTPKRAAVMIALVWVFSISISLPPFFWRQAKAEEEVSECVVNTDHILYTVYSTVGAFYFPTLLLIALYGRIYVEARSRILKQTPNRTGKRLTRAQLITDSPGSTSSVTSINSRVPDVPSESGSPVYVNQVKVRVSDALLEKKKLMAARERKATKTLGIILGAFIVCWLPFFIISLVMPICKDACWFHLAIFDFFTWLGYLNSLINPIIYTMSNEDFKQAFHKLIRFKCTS
Sequence of 5-hydroxytryptamine receptor 4 (Q13639 whole entry): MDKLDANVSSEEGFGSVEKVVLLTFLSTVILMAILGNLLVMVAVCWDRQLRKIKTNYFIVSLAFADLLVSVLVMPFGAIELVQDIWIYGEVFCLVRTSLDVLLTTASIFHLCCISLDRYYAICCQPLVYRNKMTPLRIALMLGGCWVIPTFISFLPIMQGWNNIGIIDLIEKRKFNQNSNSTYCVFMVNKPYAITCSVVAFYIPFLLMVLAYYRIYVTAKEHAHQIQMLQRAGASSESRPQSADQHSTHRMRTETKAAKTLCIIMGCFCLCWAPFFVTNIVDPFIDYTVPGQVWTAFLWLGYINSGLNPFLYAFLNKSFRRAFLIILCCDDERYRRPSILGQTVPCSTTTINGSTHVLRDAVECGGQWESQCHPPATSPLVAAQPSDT
Sequence of 5-hydroxytryptamine receptor 1D (P28221 whole entry): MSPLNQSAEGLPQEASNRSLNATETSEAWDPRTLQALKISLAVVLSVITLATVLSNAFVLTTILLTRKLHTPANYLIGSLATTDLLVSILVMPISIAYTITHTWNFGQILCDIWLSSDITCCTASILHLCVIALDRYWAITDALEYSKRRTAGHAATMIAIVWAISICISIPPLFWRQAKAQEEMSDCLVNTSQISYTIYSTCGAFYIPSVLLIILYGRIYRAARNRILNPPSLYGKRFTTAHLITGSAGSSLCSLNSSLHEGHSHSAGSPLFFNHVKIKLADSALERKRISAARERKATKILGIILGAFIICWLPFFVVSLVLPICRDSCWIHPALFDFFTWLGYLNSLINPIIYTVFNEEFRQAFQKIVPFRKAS
Sequence of 5-hydroxytryptamine receptor 2A (P28223 whole entry): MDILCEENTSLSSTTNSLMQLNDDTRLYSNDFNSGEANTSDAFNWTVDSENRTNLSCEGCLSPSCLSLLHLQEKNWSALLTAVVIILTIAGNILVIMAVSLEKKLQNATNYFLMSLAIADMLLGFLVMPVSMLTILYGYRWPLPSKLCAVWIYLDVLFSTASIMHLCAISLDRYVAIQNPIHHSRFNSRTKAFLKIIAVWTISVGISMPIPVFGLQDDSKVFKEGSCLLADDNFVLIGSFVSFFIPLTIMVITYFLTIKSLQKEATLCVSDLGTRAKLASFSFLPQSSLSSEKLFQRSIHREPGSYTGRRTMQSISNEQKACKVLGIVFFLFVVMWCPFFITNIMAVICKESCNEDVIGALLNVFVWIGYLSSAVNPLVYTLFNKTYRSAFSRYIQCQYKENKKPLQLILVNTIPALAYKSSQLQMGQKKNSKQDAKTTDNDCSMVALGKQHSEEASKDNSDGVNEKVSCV
Sequence of 5-hydroxytryptamine receptor 2B (P41595 whole entry): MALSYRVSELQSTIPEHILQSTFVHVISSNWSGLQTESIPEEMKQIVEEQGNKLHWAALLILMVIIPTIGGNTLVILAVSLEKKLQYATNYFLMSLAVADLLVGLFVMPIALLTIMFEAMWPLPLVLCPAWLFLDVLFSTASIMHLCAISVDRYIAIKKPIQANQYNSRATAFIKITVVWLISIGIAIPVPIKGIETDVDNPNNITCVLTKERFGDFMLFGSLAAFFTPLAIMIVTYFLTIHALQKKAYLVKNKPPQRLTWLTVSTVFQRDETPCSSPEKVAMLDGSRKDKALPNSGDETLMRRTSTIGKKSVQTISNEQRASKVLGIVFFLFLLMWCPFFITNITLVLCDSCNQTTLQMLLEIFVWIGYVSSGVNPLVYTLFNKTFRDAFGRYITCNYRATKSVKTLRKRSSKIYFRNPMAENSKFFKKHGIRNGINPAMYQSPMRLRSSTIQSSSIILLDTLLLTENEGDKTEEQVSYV

With `Nc1c(Cl)cc(-c2nn(C3CCN(CCc4ccccc4)CC3)c(=O)o2)c2c1OCCO2` [SL65.0155], the Ki (as a rule, a measure of affinity in units of concentration, obtained from inhibition or displacement) in [1] is 7.99 µM; in [2], 5.5 µM; in assay [3], 0.0006 µM; in assay [4] it was 1.56 µM; in [5], > 10 µM; in [6], 1.32 µM. Also, the Ki is 1.02 µM in assay [7]; 4.78 µM in assay [8]; 3.26 µM in assay [9]; 2.58 µM in assay [10]; > 10 µM in assay [11].
